Like-named read-outs stand apart in the source and are kept apart here.
Columns and labels:
[1] = complex and its solutions; compared with ordinary silver salts of carboxylic acids
[2] = tested on: Propionibacterium acnes (strain ATCC 6919); assay: Inhibition of Propionibacterium acnes growth; assay type: cell-based
Description: The assay for the inhibition of growth of Propionibacterium acnes bacteria is described elsewhere (Nakatsuji et al., J Invest Dermatol, 2009, 129: 2480-2488). In brief, the strain ATCC 6919 of P. acnes (American Type Culture Collection, Manassas, Va.) was cultured on Brucella agar (R01254, Remel, Lenexa, Kans.) supplemented with 5% (v/v) defibrinated sheep blood, vitamin K (5 mg/ml, Remel, Lenexa, Kans.), and hemin (50 mg/ml, Remel, Lenexa, Kans.), under an anaerobic condition using Gas-Pak (BD, Sparks, Md.) at 37° C. A single colony was inoculated in Reinforced Clostridium Medium (Oxford, Hampshire, England) and cultured at 37° C. under the anaerobic condition. Each of the inventive complexes—AFC-Sr, AFC-Ag and AFC-Zn as well as AFC were dissolved in 100% (v/v) DMSO. Samples of each inventive complex, AFC and a solution of benzoyl peroxide (“BPO”) were then each incubated with an inoculum of P. acnes at a concentration of 1×10^6 CFU per mL in Reinforced Clostridium Medium in a 96-well microplate (100 μL per well) under anaerobic conditions for 72 hours. Samples of each were tested at final concentrations per well of 0.25 μg/mL, 0.5 μg/mL, 1.0 μg/mL, 1.95 μg/mL, 3.9 μg/mL, 7.8 μg/mL, 15.625 μg/mL, 31.25 μg/mL, 62.5 μg/mL, 125 μg/mL, 250μg/mL, and 500 μg/mL. A control well received only 5% (v /v) of DMSO in place of a sample of an inventive complex. After 72 hours incubation under anaerobic conditions, the P. acnes cultures in the 96-well microplate were mixed well and then absorbance readings at 600 nm were taken to determine bacterial growth. […] Growth curves of P. acnes determined for BPO, AFC, AFC-Sr, AFC-Ag and AFC-Zn are depicted in FIG. 3.

[3] = tested on: neutrophils; assay: Inhibition of oxidative burst from neutrophils (fMLP-induced superoxide release); assay type: cell-based; settings: reduction of superoxide formation, fMLP 0.2 μM, 0 to 100 μM compound; read-out: ED50 Respiratory Burst
Description: During inflammation, neutrophils produce and release superoxide ions, otherwise known as oxidative burst response, causing cytotoxicity. […] The superoxide release assay is based on published protocols (Goldstein et al. (1975). J. Clin. Invest. 56(5): 1155-63). Briefly, cells were pre-incubated for 10 min at 37° C. with a mixture of cytochrome c (75 μM final concentration), cytochalasin B (5 μg/ml) with or without superoxide dismutase (SOD) (10 μg/ml) and with or without AFC, AFC-Calcium complex, and AFC-Strontium complex (ranging from 0 to 100 μM). To initiate O2^− release, fMLP (0.2 μM) was added the cells are incubated for 10 min at 37° C. Samples were then placed on ice for 5 min and subsequently centrifuged at 3,000 rpm at 4° C. The supernatant was then analyzed by spectrophotometric measurement at 550 and 556.5 nm. The ED50 values for the reduction of superoxide formation, obtained with AFC, AFC-Calcium complex, and AFC-Strontium complex are depicted in Table 2.

[4] = tested on: TPA-treated mouse ears (erythema, Δa* redness); assay: TPA mouse ear model of inflammation - erythema inhibition; assay type: in vivo; settings: topical, 24 hours
Description: The protocol for measuring erythema inhibition by provided complexes was developed in-house by utilizing the CR-400 chroma meter from Konica Minolta (2). This instrument was used to measure the Δa*redness value from 6 mm biopsy punches taken 24 hours post TPA/compound treatment as described in the edema inhibition section above. […] These values were corrected for the Δa* value of non TPA-treated mouse ears of littermate controls.

[5] = tested on: MPO activity (neutrophil infiltration) in P. acnes-injected ear; assay: P. acnes-induced mouse ear model of inflammation - MPO endpoint; assay type: in vivo; settings: dose of 0.4 mg/20 μL
Description: The methods for a model of P. acnes-inflammation are described elsewhere (Nakatsuji et al., J Invest Dermatol, 2008, 128: 2451-2457).
The protocol for inducing inflammation using P. acnes bacterial challenge on the mouse ear was slightly modified from the method described previously (Natatsuji et al., 2008). Briefly, Swiss Webster (ICR, 6-8 weeks old) mouse ears were injected with living P. acnes culture intradermally. An amount of 20 μl aliquots of living P. acnes (ATCC 6919, 3×10^6 CFU) suspended in PBS was intradermally injected in the central portion of the ear. As a control, 20 μl of PBS was injected into control animals.
To assay for inhibition of dermal neutrophil infiltration by AFC complexes, a standard method was used (see Bradley et al., J Invest Dermatol, 1982,78: 206-209; Young et al., J Invest Dermatol, 1983, 80: 48-52; De Young et al, Agents Actions, 1989, 26: 335-41; and Rao et al., Inflammation, 1993, 17: 723-41). Briefly, 6mm biopsy punches taken from both compound-treated ears as well as non-treated control ears were homogenized in 400 μl of 0.5% hexadecyltrimethylammonium bromide in 50 mM potassium phosphate buffer (pH 6.0) using the Fast Prep 24 (MP Biomedicals, Solon, Ohio). Supernatants were assayed for MPO activity using a model EL 340 96-well plate reader (BioTek Instruments, Winooski, Vt.). The percent inhibition of neutrophil infiltration by each AFC complex was determined by comparing the average MPO levels in the presence and absence of these compounds. The percent inhibition of MPO was determined by taking the average MPO activity of compound-treated ears and dividing it by the average MPO activity of 12 ears that only received the P. acnes challenge and subtracting that value from 100%. These values were corrected for the MPO activity of normal, non P. acnes-treated mouse ears of littermate controls. Summary of MPO activity ranges determined from an MPO activity assay for dexamethasone (administered at a dose of 1.6 mg/20 μL), clobetasol (administered at a dose of 0.1 mg/20 μL), salicylic acid (administered at a dose of 0.4 mg/20 μL), AFC (administered at a dose of 0.4 mg/20 μL), AFC-Strontium complex (administered at a dose of 0.4 mg/20 μL) and SFC-disodium are presented in Table 4. “+” indicates a range of 0-20%, “++” indicates a range of 20-40%, and “+++” indicates >40% inhibition.

[6] = tested on: MPO (myeloperoxidase), neutrophil marker; assay: TPA mouse ear model of inflammation - MPO inhibition (dermal neutrophil infiltration); assay type: in vivo
Description: Briefly, we homogenized 6mm biopsy punches taken from both compound-treated ears as well as TPA-treated and non-treated control groups. We quantitated the levels of MPO by a colorimetric reaction that was measured spectrophotometrically. The percent inhibition of neutrophil infiltration by each complex was determined by comparing the average MPO levels in the presence and absence of these compounds. The calculation for percent inhibition of MPO was determined similar to that as described for calculating the percent edema inhibition, see the Edema Inhibition protocol, supra.

[7] = tested on: TPA-treated mouse ears (edema, ear thickness); assay: TPA mouse ear model of inflammation - edema inhibition; assay type: in vivo; settings: topical, 24 hours
[8] = tested on: TPA-treated mouse ears (edema, ear thickness); assay: as above; assay type: in vivo
Description: In brief, mice were sedated and their ears were treated with 1.2 μg/20 uL TPA (i.e., tetradecanoylphorbol-13-acetate). After 5 minutes, we dosed these TPA-treated ears with a single 8 μg/20 μL dose, a 2 μg/20 μL dose, or both doses, of provided complexes. After 24 hours, the mice were sacrificed and edema was measured by taking micrometer readings of each ear. […] These values were corrected for the thickness of normal, non TPA-treated mouse ears of littermate controls.

| Structure (SMILES) | light and air stability [1] | IC50 (inhibition of P. acnes growth) [2] [µg/mL] | EC50 [3] [µM] | % Erythema Inhibition in the Mouse Ear Inflammation Assay (4% concentration) [4] | IC50 (inhibition of P. acnes growth) ([2]; 72 hours, anaerobic, absorbance 600 nm, 1×10^6 CFU per mL) [µg/mL] | MPO % Inhibition [5] | ED50 in the MPO assay ([6]; TPA-treated mouse ear, several concentrations, inhibitory activity curves) [μg/ear] | ED50 value for inhibiting neutrophil infiltration ([6]; TPA-treated mouse ear, topical) [µM] | % MPO Inhibition in the Mouse Ear Inflammation Assay (4% concentration) ([6]; TPA-treated mouse ear, topical, 4% concentration, 24 hours) | MPO inhibition compared with another complex or AFC alone ([6]; mouse ear inflammation assay) | fold lower ED50 value for inhibiting neutrophil infiltration than the AFC oil ([6]; versus AFC oil) [fold] | % Edema Inhibition in the Mouse Ear Inflammation Assay (4% concentration) [7] | ED50 for edema inhibition ([8]; TPA-treated mouse ear, topical) [µM] | decrease of edema compared with another complex or AFC alone ([8]; mouse ear inflammation assay) |
| --- | --- | --- | --- | --- | --- | --- | --- | --- | --- | --- | --- | --- | --- | --- |
| CC(=O)N[C@@H](CSC/C=C(\C)CC/C=C(\C)CCC=C(C)C)C(=O)[O-].[Ag+] [AFC-Silver complex, Silver (R)-2-acetamido-3-((2E,6E)-3,7,11-trimethyldodeca-2,6,10-trienylthio)propanoate] | enhanced light and air stability | 16.9 |  |  |  |  |  |  |  |  |  |  |  |  |
| CC(=O)N[C@@H](CSC/C=C(\C)CC/C=C(\C)CCC=C(C)C)C(=O)O [AFC-strontium complex, Strontium (R)-2-acetamido-3-((2E,6E)-3,7,11-trimethyldodeca-2,6,10-trienylthio)propanoate] |  |  | 35.6 | +++ (“+++” indicates >40% inhibition of erythema) | 12.6 | +++ (“+++” indicates >40% inhibition) | 315 | 5020 | +++ (“+++” indicates >80% inhibition of MPO) | improved MPO inhibition than the calcium complex | ~8 | +++ (“+++” indicates >50% inhibition of edema) | 21700 | more effective at decreasing edema than the calcium complex |

— patent US20100247461A1, “ANTI-INFLAMMATORY COMPLEXES” (Signum Biosciences, Inc., priority 2009, published 2010)
